The values below are quoted from earlier work in patent US9782454B2 (LONGEVITY BIOTECH, INC., priority 2010, dated 2017).

Non-standard residues stand in square brackets, D forms with d. No end group written: not given here. dPhe(4-Cl) = N[C@H](Cc1ccc(Cl)cc1)C(=O)O

Series [1] deals with T1, human calcitonin receptor (Homo sapiens, UniProt P30988).
T1 sequence (P30988 25-474): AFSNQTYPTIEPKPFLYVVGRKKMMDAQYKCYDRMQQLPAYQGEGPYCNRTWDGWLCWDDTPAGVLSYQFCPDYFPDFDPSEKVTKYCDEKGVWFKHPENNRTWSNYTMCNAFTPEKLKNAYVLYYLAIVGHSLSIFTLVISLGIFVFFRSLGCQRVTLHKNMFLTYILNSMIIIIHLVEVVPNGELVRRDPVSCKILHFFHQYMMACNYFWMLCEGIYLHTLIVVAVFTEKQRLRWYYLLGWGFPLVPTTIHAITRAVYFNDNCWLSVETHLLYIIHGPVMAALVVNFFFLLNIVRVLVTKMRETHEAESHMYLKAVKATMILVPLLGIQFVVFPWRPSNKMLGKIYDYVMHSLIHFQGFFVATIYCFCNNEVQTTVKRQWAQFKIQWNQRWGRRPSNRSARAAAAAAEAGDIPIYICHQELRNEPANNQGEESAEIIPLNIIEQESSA
To be noted: read-out: EC50, agonist for the human calcitonin receptor; cited from earlier work.

For the next series, the target named is T2, neurotensin receptor (Mus musculus, UniProt O88319).
T2 construct: from tissue; host or cells: neonatal mouse brain (value quoted from the literature)
To be noted: read-out: IC50 for inhibition of {125I}-NT binding to neonatal mouse brain; cited from earlier work.

A further series deals with guinea pig ileum. Conditions: read-out: EC50 for contraction of guinea pig ileum; cited from earlier work.
A further series addresses mouse CRF2β (Mus musculus, UniProt Q60748). To be noted: read-out: Kd for binding to mouse CRF2β; cited from earlier work.
Another series concerns the target T3, rat CRF1 receptors (Rattus norvegicus, UniProt P35353).
T3 sequence (P35353 24-415): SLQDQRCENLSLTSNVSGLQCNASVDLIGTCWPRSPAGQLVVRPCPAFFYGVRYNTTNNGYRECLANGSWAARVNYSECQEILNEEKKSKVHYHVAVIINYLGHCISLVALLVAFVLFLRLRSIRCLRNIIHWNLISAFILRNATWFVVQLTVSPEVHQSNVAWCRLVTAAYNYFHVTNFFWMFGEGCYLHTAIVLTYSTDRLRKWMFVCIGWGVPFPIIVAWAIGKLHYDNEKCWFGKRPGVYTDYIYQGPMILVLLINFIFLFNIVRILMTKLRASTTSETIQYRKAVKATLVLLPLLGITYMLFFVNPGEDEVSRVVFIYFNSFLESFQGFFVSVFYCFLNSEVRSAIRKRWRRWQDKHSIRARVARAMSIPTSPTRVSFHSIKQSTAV
Conditions: read-out: Kd for binding to rat CRF1 receptors; cited from earlier work.

Another series addresses T4, mCRF2β (Mus musculus, UniProt Q60748).
T4 construct: expressed in transfected cells; host or cells: HEK-mCRF2β cells (value quoted from the literature)
Conditions: cited from earlier work.

For another series, the target named is 14.3.3 proteins. Conditions: read-out: KD, antagonist of 14.3.3 proteins; cited from earlier work.
Series [2] addresses vasoactive intestinal peptide (VIP) receptor. To be noted: read-out: IC50, selective VIP antagonist; cited from earlier work.
Another series concerns the target glucagon receptors (Homo sapiens, UniProt P47871). Conditions: cited from earlier work.
For a further series, the target named is secretin receptors (Homo sapiens, UniProt P47872). Conditions: cited from earlier work.
Another series addresses T5, GRF receptors (Homo sapiens, UniProt Q02643).
T5 sequence (Q02643 23-423): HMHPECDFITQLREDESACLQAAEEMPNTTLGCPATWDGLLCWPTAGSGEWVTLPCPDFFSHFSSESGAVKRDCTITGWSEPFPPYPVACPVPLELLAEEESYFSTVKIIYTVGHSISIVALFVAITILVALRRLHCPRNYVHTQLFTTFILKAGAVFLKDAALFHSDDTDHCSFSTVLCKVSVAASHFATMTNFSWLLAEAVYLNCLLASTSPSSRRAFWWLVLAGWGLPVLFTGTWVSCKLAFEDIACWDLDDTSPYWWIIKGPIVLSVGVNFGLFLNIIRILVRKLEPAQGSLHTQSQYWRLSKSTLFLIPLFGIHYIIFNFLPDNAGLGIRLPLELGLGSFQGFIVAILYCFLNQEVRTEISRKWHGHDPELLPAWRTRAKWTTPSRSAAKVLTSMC
Conditions: cited from earlier work.

Another series concerns the target neurotensin receptors. Conditions: read-out: IC50 for inhibition of {Trp11}-NT binding to rat brain receptors; cited from earlier work.

glucagon receptors, sequence (P47871 26-477): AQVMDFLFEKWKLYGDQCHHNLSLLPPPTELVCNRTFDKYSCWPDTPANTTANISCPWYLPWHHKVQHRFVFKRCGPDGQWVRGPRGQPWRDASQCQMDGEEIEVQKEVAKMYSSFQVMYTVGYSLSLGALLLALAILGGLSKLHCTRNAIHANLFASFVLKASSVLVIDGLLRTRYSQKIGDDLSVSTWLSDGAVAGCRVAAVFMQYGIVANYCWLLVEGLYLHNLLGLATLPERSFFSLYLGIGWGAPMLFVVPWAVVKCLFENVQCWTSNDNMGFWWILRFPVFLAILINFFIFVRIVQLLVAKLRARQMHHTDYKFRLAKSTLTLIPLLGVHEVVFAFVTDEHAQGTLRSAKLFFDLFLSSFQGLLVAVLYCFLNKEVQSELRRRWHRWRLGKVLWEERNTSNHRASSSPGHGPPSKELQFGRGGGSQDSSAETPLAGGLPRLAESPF
secretin receptors, sequence (P47872 23-440): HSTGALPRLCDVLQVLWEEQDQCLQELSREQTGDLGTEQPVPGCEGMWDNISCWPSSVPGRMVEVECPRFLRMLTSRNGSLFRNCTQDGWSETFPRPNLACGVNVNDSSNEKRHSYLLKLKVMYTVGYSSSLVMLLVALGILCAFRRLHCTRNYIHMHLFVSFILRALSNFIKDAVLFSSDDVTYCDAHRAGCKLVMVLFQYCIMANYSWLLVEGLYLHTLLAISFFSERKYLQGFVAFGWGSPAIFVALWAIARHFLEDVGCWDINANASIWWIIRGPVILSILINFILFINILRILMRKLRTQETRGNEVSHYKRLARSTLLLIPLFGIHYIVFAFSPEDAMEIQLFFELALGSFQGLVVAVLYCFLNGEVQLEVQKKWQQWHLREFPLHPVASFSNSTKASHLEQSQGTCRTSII
mouse CRF2β, sequence (Q60748 1-431 isoform Q60748-2): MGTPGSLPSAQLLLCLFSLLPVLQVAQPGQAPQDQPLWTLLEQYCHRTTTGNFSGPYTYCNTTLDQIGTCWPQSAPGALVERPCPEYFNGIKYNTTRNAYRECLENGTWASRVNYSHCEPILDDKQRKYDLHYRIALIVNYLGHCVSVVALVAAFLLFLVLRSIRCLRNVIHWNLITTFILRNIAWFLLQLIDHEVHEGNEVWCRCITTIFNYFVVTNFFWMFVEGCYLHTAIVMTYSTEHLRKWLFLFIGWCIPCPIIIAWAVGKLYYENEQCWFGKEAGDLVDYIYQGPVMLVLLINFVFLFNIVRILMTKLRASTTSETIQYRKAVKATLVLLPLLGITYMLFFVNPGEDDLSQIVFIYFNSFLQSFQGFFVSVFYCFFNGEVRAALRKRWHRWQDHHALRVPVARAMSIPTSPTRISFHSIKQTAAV
T4 sequence (Q60748 1-431 isoform Q60748-2): as above
T2 sequence (O88319 whole entry): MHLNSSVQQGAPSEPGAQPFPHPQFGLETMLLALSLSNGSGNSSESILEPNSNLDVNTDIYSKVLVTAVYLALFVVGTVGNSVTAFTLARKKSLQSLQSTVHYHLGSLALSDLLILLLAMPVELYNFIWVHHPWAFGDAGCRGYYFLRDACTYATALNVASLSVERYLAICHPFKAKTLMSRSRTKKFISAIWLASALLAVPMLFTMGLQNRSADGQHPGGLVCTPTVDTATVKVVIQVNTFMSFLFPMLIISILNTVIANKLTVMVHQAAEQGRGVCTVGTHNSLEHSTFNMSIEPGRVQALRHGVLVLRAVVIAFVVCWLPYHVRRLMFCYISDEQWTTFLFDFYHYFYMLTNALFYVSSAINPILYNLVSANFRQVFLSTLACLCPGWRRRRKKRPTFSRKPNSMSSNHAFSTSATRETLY

In general, EC50 refers to the concentration giving half of the maximal effect. For “PHM 27 (human) (HADGVFTSDFSKLLGQLSAKKYLESLM-NH2; UniProt P01282 81-107, looked up)”, in [1], the EC50 is 11 nM.

A word on the IC50: it is the midpoint of a concentration-inhibition curve. Consider JMV 449 (IARRHPYFL; Kinetensin), for which the IC50 with neurotensin receptor is 0.15 nM. Moreover, the EC50 in the series with guinea pig ileum is 1.9 nM.

What is called Kd is the equilibrium constant for the complex coming apart. Turning to Antisauvagine-30, the values for the Kd on mouse CRF2β and at rat CRF1 receptors were 1.4 nM and 154 nM, respectively. Moreover, the “pA2, inhibition of sauvagine-stimulated cAMP accumulation in HEK-mCRF2β cells” value on mCRF2β is on record as “sauvagine-stimulated cAMP accumulation in HEK-mCRF2β cells (pA2 = 8.49). Prevents stress-”.

With “R18 (RYVVLPRPVCFEKGMNYTVR; Peptide F9) [Compound R18]”, the Kd on 14.3.3 proteins is roughly 80 nM.

For “{D-p-C1-Phe6,Leu17}-VIP ([dPhe(4-Cl)]TDNYTRLRKQMAVKKYLNSILN-NH2)”, the half-maximal inhibitory concentration (IC50) in series [2] was 126 nM. Moreover, the “activity on glucagon receptors” value in the series with glucagon receptors is “no activity”. Moreover, the “activity on secretin receptors” value with secretin receptors is given as “no activity”. Further, the “activity on GRF receptors” value with GRF receptors was “no activity”.

As to “Neuromedin N (rat, mouse, porcine, canine) (KIPYIL; Neuromedin N; UniProt P20068 142-147, looked up)”, the IC50 on neurotensin receptors is 16.7 nM.
